# From US12157746B2, “Tetrahydro-1H-pyrazino[2,1-a]isoindolylquinoline compounds for the treatment of autoimmune disease” (F. HOFFMANN-LA ROCHE AG, priority 2018, dated 2024)
# Biological target: T1, human TLR7 (Homo sapiens, UniProt Q9NYK1)
# T1 sequence (Q9NYK1 27-1049): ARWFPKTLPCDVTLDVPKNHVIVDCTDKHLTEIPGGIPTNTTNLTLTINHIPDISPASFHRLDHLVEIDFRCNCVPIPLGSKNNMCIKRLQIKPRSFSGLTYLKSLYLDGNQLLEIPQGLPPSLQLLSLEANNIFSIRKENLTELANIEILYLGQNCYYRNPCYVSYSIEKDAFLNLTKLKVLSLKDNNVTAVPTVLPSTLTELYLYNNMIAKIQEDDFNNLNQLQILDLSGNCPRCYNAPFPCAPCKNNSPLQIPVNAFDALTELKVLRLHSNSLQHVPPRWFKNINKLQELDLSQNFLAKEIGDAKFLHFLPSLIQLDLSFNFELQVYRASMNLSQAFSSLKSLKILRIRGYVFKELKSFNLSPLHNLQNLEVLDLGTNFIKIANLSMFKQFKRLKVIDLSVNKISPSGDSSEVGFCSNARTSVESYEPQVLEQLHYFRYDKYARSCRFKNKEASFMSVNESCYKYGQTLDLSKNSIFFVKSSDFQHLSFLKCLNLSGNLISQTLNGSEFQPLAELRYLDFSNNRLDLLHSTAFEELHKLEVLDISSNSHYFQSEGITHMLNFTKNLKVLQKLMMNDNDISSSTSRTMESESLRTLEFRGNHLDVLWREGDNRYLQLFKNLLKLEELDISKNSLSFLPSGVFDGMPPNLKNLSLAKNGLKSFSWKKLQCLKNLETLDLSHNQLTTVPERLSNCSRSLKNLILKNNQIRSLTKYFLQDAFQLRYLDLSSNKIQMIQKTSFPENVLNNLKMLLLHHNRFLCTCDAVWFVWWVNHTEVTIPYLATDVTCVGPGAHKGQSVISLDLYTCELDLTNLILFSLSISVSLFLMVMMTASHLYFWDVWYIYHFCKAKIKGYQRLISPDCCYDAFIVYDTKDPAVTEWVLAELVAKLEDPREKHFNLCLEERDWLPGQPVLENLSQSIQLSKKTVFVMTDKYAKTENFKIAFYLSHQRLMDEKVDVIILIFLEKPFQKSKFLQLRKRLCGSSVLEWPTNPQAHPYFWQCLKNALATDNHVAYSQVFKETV
# Experiment: HEK293-Blue-hTLR-7 cells assay
# Format: cell-based
# Conditions: HEK293-Blue-hTLR7 cells, R848 stimulation, 20 hrs, SEAP reporter; read-out: HEK/hTLR7 IC50
# From the text: HEK293-Blue-hTLR-7 Cells Assay:
# A stable HEK293-Blue-hTLR-7 cell line was purchased from InvivoGen (Cat. #: hkb-htlr7, San Diego, California, USA). These cells were originally designed for studying the stimulation of human TLR7 by monitoring the activation of NF-κB. A SEAP (secreted embryonic alkaline phosphatase) reporter gene was placed under the control of the IFN-β minimal promoter fused to five NF-κB and AP-1-binding sites. The SEAP was induced by activating NF-κB and AP-1 via stimulating HEK-Blue hTLR7 cells with TLR7 ligands. Therefore the reporter expression was declined by TLR7 antagonist under the stimulation of a ligand, such as R848 (Resiquimod), for incubation of 20 hrs. The cell culture supernatant SEAP reporter activity was determined using QUANTI-Blue™ kit (Cat. #: rep-qb1, Invivogen, San Diego, Ca. USA) at a wavelength of 640 nm, a detection medium that turns purple or blue in the presence of alkaline phosphatase.
# HEK293-Blue-hTLR7 cells were incubated at a density of 250,000˜450,000 cells/mL in a volume of 170 μL in a 96-well plate in Dulbecco's Modified Eagle's medium (DMEM) containing 4.5 g/L glucose, 50 U/mL penicillin, […], […], 2 mM L-glutamine, 10% (v/v) heat-inactivated fetal bovine serum with addition of 20 μL test compound 1n a serial dilution in the presence of final DMSO at 1% and 10 μL of 20 uM R848 in above DMEM, perform incubation under 37° C. in a CO2 incubator for 20 hrs. Then 20 μL of the supernatant from each well was incubated with 180 μL Quanti-blue substrate solution at 37° C. for 2 hrs and the absorbance was read at 620-655 nm using a spectrophotometer. The signaling pathway that TLR7 activation leads to downstream NF-κB activation has been widely accepted, and therefore similar reporter assay was modified for evaluating TLR7 antagonist.
row,SMILES,IC50 [nM]
1,"C[C@@H]1CN(c2ccc(C#N)c3ncccc23)C[C@@H]2c3ccc(N4CCOC[C@H](N)C4)cc3CN12 [Example 54A, 5-[(4R,10bS)-8-[(6R)-6-amino-1,4-oxazepan-4-yl]-4-methyl-3,4,6,10b-tetrahydro-1H-pyrazino[2,1-a]isoindol-2-yl]quinoline-8-carbonitrile]",4.5
2,"COC1CN(c2ccc3c(c2)CN2C3CN(c3ccc(C#N)c4ncccc34)C[C@H]2C)CC1N (single isomer, unassigned) [Example 16B]",4.5
3,"CO[C@@H]1CN(c2ccc3c(c2)CN2[C@H](C)CN(c4ccc(C#N)n5nccc45)C[C@H]32)CC[C@H]1N [Example 104, 4-[(4R,10bS)-8-[(3R,4R)-4-amino-3-methoxy-1-piperidyl]-4-methyl-3,4,6,10b-tetrahydro-1H-pyrazino[2,1-a]isoindol-2-yl]pyrazolo[1,5-a]pyridine-7-carbonitrile]",6.1
4,"CN[C@H]1CN(c2ccc3c(c2)CN2[C@H](C)CN(c4ccc(C#N)c5ncccc45)C[C@H]32)C[C@@H]1O [Example 42, 5-[(4R,10bS)-8-[(3S,4S)-3-hydroxy-4-(methylamino)pyrrolidin-1-yl]-4-methyl-3,4,6,10b-tetrahydro-1H-pyrazino[2,1-a]isoindol-2-yl]quinoline-8-carbonitrile]",< 3.2
5,"C[C@@H]1CN(c2ccc(C#N)c3ncccc23)C[C@@H]2c3ccc(OCCN(C)C)cc3CN12 [Example 25, 5-[(4R,10bS)-8-[2-(dimethylamino)ethoxy]-4-methyl-3,4,6,10b-tetrahydro-1H-pyrazino[2,1-a]isoindol-2-yl]quinoline-8-carbonitrile]",< 3.2
6,"C[C@@H]1CN(c2ccc(C#N)c3ncccc23)C[C@@H]2c3ccc(N4CC(N)C5(COC5)C4)cc3CN12 (stereo partly drawn) [Example 18, 5-[(4R,10bS)-8-(5-amino-2-oxa-7-azaspiro[3.4]octan-7-yl)-4-methyl-3,4,6,10b-tetrahydro-1H-pyrazino[2,1-a]isoindol-2-yl]quinoline-8-carbonitrile]",4.9
7,"C[C@@H]1CN(c2ccc(C#N)n3nccc23)C[C@@H]2c3ccc(N4CCNCC4)cc3CN12 [Example 5, 4-[(4R,10bS)-4-methyl-8-piperazin-1-yl-3,4,6,10b-tetrahydro-1H-pyrazino[2,1-a]isoindol-2-yl]pyrazolo[1,5-a]pyridine-7-carbonitrile]",4.9
8,"N#Cc1ccc(N2CCN3Cc4cc(N5CCNCC5)ccc4C3C2)c2scnc12 (centres unmarked) [Example 4, 7-(8-piperazin-1-yl-3,4,6,10b-tetrahydro-1H-pyrazino[2,1-a]isoindol-2-yl)-1,3-benzothiazole-4-carbonitrile]",18.3
9,"C[C@@H]1CN(c2ccc(C#N)c3ncccc23)C[C@@H]2c3ccc(NC4CNCCOC4)cc3CN12 (stereo partly drawn) [Example 56, 5-[(4R,10bS)-4-methyl-8-(1,4-oxazepan-6-ylamino)-3,4,6,10b-tetrahydro-1H-pyrazino[2,1-a]isoindol-2-yl]quinoline-8-carbonitrile]",6.9
10,"C[C@@H]1CN(c2ccc(C#N)n3nccc23)C[C@@H]2c3ccc(N4C[C@@H](N)[C@H](O)C4)cc3CN12 [Example 110, 4-[(4R,10bS)-8-[(3R,4R)-3-amino-4-hydroxy-pyrrolidin-1-yl]-4-methyl-3,4,6,10b-tetrahydro-1H-pyrazino[2,1-a]isoindol-2-yl]pyrazolo[1,5-a]pyridine-7-carbonitrile]",19
11,"C[C@@H]1CN(c2ccc(C#N)n3ncc(F)c23)C[C@@H]2c3ccc(N4C[C@H](N)[C@@](C)(O)C4)cc3CN12 [Example 112, 4-[(4R,10bS)-8-[(3S,4S)-4-amino-3-hydroxy-3-methyl-pyrrolidin-1-yl]-4-methyl-3,4,6,10b-tetrahydro-1H-pyrazino[2,1-a]isoindol-2-yl]-3-fluoro-pyrazolo[1,5-a]pyridine-7-carbonitrile]",11.4
12,"C[C@@H]1CN(c2ccc(C#N)c3ncccc23)C[C@@H]2c3ccc(N4CCNCC(O)C4)cc3CN12 (stereo partly drawn) [Example 15, 5-[(4R,10bS)-8-(6-hydroxy-1,4-diazepan-1-yl)-4-methyl-3,4,6,10b-tetrahydro-1H-pyrazino[2,1-a]isoindol-2-yl]quinoline-8-carbonitrile]",5.8
13,"C[C@@H]1CN(c2ccc(C#N)c3ncccc23)C[C@@H]2c3ccc(N4CCNC[C@](C)(O)C4)cc3CN12 [Example 55A, 5-[(4R,10bS)-8-[(6S)-6-hydroxy-6-methyl-1,4-diazepan-1-yl]-4-methyl-3,4,6,10b-tetrahydro-1H-pyrazino[2,1-a]isoindol-2-yl]quinoline-8-carbonitrile]",7.7
14,"CN[C@H]1CN(c2ccc3c(c2)CN2[C@H](C)CN(c4ccc(C#N)c5ncccc45)C[C@H]32)C[C@@H]1OC [Example 23, 5-[(4R,10bS)-8-[(3S,4S)-3-methoxy-4-(methylamino)pyrrolidin-1-yl]-4-methyl-3,4,6,10b-tetrahydro-1H-pyrazino[2,1-a]isoindol-2-yl]quinoline-8-carbonitrile]",7
15,"CO[C@H]1CN(c2ccc3c(c2)CN2[C@H](C)CN(c4ccc(C#N)n5nccc45)C[C@H]32)C[C@@H]1N [Example 95, 4-[(4R,10bS)-8-[(3S,4S)-3-amino-4-methoxy-pyrrolidin-1-yl]-4-methyl-3,4,6,10b-tetrahydro-1H-pyrazino[2,1-a]isoindol-2-yl]pyrazolo[1,5-a]pyridine-7-carbonitrile]",20.8
16,"C[C@@H]1CN(c2ccc(C#N)c3ncccc23)C[C@@H]2c3ccc(N4CC(C)(N)C4)cc3CN12 [Example 39, 5-[(4R,10bS)-8-(3-amino-3-methyl-azetidin-1-yl)-4-methyl-3,4,6,10b-tetrahydro-1H-pyrazino[2,1-a]isoindol-2-yl]quinoline-8-carbonitrile]",3
17,"C[C@@H]1CN(c2ccc(C#N)c3ncccc23)C[C@@H]2c3ccc(C4CNC4)cc3CN12 [Example 29, 5-[(4R,10bS)-8-(azetidin-3-yl)-4-methyl-3,4,6,10b-tetrahydro-1H-pyrazino[2,1-a]isoindol-2-yl]quinoline-8-carbonitrile]",< 3.2
18,"C[C@@H]1CN(c2ccc(C#N)n3nccc23)C[C@@H]2c3ccc(N4C[C@H](N)[C@@](C)(O)C4)cc3CN12 [Example 109, 4-[(4R,10bS)-8-[(3S,4S)-4-amino-3-hydroxy-3-methyl-pyrrolidin-1-yl]-4-methyl-3,4,6,10b-tetrahydro-1H-pyrazino[2,1-a]isoindol-2-yl]pyrazolo[1,5-a]pyridine-7-carbonitrile]",28.1
19,"C[C@@H]1CN(c2ccc(C#N)c3ncccc23)C[C@@H]2c3ccc(N[C@@H]4CNC[C@@H]4F)cc3CN12 [Example 32, 5-[(4R,10bS)-8-[[(3R,4S)-4-fluoropyrrolidin-3-yl]amino]-4-methyl-3,4,6,10b-tetrahydro-1H-pyrazino[2,1-a]isoindol-2-yl]quinoline-8-carbonitrile]",3.5
20,"C[C@@H]1CN(c2ccc(C#N)c3ncccc23)C[C@@H]2c3ccc(N4CCNCC(C)(O)C4)cc3CN12 (stereo partly drawn) [Example 55, 5-[(4R,10S)-8-(6-hydroxy-6-methyl-1,4-diazepan-1-yl)-4-methyl-3,4,6,10b-tetrahydro-1H-pyrazino[2,1-a]isoindol-2-yl]quinoline-8-carbonitrile]",6.5
